{"source": "patent US20240229098A1", "about": "“BIOLUMINOGENIC ASSAY FOR DRUG-RESISTANCE BACTERIA DETECTION” (priority 2021, published 2024)", "key": {"firefly luciferase": {"target": "T1, firefly luciferase (Photinus pyralis, UniProt P08659)", "T1 construct": "purchased Promega E1701", "T1 sequence (P08659 whole entry)": "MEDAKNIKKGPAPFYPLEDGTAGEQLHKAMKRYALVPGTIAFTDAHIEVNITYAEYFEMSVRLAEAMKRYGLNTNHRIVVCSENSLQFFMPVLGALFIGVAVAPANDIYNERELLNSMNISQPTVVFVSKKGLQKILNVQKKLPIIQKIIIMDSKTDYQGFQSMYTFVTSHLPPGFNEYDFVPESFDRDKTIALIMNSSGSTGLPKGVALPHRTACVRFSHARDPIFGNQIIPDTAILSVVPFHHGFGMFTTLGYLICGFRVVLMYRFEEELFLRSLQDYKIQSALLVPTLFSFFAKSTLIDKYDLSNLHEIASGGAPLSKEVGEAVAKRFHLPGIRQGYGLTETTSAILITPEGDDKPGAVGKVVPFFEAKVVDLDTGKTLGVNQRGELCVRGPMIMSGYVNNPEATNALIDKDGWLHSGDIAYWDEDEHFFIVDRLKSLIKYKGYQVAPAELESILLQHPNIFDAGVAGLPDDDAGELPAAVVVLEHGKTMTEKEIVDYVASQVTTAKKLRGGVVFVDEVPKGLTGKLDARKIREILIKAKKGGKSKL", "test": "Background bioluminescence and oxidation of pro-luciferin probes on repeated addition of firefly luciferase", "assay_type": "biochemical", "settings": "for bioluminescence emission on additional batches of firefly luciferase: repeated firefly luciferase addition, no β-lactamase", "experimental": "The initial bioluminescent background signal may come from residual D-luciferin present in the sample. High-performance liquid chromatography (HPLC) analysis could not detect any D-luciferin at a concentration below 0.1 μM. However, addition of firefly luciferase can efficiently detect and consume the residual free D-luciferin.\nTo further confirm the quenching effect of dabcyl in D-Bluco, another control, Am-Bluco, was prepared that is structurally similar to D-Bluco but with dabcyl replaced by a structure lacking the broad absorption between 400 and 530 nm (FIG. 1)."}, "TEM-1 [1]": {"target": "T2, TEM-1 (Escherichia coli, UniProt P62593)", "T2 sequence (P62593 24-286 limits assumed)": "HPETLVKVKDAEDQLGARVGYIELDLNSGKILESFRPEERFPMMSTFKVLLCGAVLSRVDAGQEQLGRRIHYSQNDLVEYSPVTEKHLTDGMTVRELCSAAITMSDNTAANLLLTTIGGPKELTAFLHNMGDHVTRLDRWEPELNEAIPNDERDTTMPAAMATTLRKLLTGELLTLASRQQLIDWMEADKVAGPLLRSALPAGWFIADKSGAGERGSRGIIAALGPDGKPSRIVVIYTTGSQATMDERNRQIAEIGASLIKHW", "assay_type": "biochemical", "parameters": "made in house", "settings": "10 μM probe, TEM-1 20 nM, 15 min, PBS pH 7.4, r.t.", "experimental": "RLU indicates relative light units.\n(§1) FIGS. 9A and 9B illustrates bioluminescent studies of D-Bluco and O-Bluco treating with various β-lactamases. 10 μM of Bluco, D-Bluco and O-Bluco incubated with 20 nM TEM-1 for 15 min in PBS at r.t. The bioluminescent signals for each compound was evaluated with or without the addition of TEM-1 by a luminator. […] The relative bioluminescent was calculated by removing background signal in PBS.\nThe bioluminescence emission from the released D-luciferin was measured. […] Also evaluated was whether there was interference between luciferase and β-lactamases in such dual enzyme reaction system.\nThe signal to background ratio for D-Bluco, O-Bluco, and Bluco was measured following the addition of the firefly luciferase (fLuc).\n(§2) The caged luciferin probes were incubated with different concentrations of TEM-1 β-lactamase or IMP-1 carbapenemase (0.001-0.1 fmol) in PBS (pH=7.4) for 2 hr at 25° C. Then a mixture of luciferase (200 nM), ATP (2 mM), and MgCl2 (4 mM) was added, and bioluminescent signals were detected with a SpectraMax microplate reader or a luminator."}, "[2]": {"tested_on": "KPC-3, BlaC, TEM-1, IMP-1, AmpC, OXA-48", "test": "Bioluminescence with panel of recombinant β-lactamases of clinical relevance", "assay_type": "biochemical", "experimental": "as §1\nHaving confirmed the quenching ability of dabcyl to lower D-Bluco bioluminescent background emission, the activity of D-Bluco towards a variety of β-lactamases that are of clinical relevance in addition to TEM-1, including KPC-3, BlaC (Class A), AmpC (Class C), and OXA-48 (Class D) was then assessed. These enzymes were recombinantly expressed and purified. The bioluminescent signal was measured with an IVIS optical imaging system after treating D-Bluco with each enzyme for 2 hours at room temperature.\nD-Bluco and O-Bluco were evaluated with various β-lactamase that of clinical relevance (FIG. 9B and 9C), including KPC-3, BlaC, TEM-1 (Class A), IMP-1 (Class B), AmpC (Class C), and OXA-48 (Class D). These enzymes were recombinantly expressed, purified as previously described^25. The bioluminescent signal was measured after incubating O-Bluco or D-Bluco with each enzyme at different concentrations for 2 hr at r.t. […] This compares favorably to previously reported fluorescent cephalosporin probe with a 1000-fold sensitivity improvement.^26\nas §2"}, "IMP-1": {"target": "IMP-1 (Serratia marcescens, UniProt P52699)", "sequence (P52699 19-246)": "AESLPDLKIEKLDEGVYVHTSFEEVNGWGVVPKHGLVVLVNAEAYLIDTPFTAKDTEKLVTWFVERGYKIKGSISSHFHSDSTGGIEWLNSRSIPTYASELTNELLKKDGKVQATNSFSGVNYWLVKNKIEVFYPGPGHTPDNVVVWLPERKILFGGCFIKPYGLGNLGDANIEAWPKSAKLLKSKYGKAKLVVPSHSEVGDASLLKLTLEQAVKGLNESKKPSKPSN", "settings": "D-luciferin 10 μM, IMP-1 10, 20, 50, 100 nM, 15 min, PBS pH 7.4", "quoted_text": "(§3) Bioluminescent signal was measured after the addition of bioluminescent reagent. Statistical significance was calculated using the unpaired two-tailed Student's t test (** p<0.01, **** p<0.0001).\n(§4) The study was duplicated at room temperature with PBS (pH=7.4). Statistical significance was calculated using the unpaired two-tailed Student's t test (ns: not significant). The study was duplicated at room temperature with PBS (pH=7.4) as the buffer. Data were collected on a SpectraMax iD3 multimode microplate reader."}, "TEM-1 [3]": {"target": "T2, TEM-1", "settings": "D-luciferin 10 μM, TEM-1 10, 20, 50, 100 nM, 15 min, PBS pH 7.4", "quoted_text": "as §3, §4"}, "TEM-1 [4]": {"target": "T2, TEM-1", "test": "Fluorescence turn-on of caged luciferin probes with recombinant TEM-1 bla", "assay_type": "biochemical", "parameters": "made in house", "experimental": "D-Bluco was evaluated as to whether it could be processed by β-lactamase to release luciferin with one of the most prevalent Ambler class A β-lactamases, TEM-1.\nBoth probes were evaluated to with TEM-1 bla, one of the most abundant β-Lactamases for initial testing. The fluorescent signal of D-Bluco and O-Bluco incubated with 100 nM TEM-1 bla was examined with a microplate reader over a period of 40 minutes.\nGeneral information: All chemicals were purchased from commercial sources and used without further purification. […] QuantiLum Recombinant luciferase (catalog number E1701) was purchased from Promega (Madison, WI). Reaction progress was monitored by analytical thin layer chromatography (TLC) with 0.25 mm silica gel 60F plates and visualized with fluorescent indicator (254 nm). Flash column chromatography was conducted using silica gel (SiliaFlash for flash column, 40-63 μm, 60 Å). The ^1H and ^13C NMR spectra were acquired on a Varian 500 MHz or 600 MHz magnetic resonance spectrometer. Data for ^1H NMR spectra are reported as follows: chemical shifts are reported as δ in units of parts per million (ppm) relative to chloroform-d (δ 7.26, s); multiplicities are reported as follows: s (singlet), d (doublet), t (triplet), q (quartet), dd (doublet of doublets), m (multiplet), or br (broadened); coupling constants are reported as a J value in Hertz (Hz); and the number of protons (n) for a given resonance is indicated nH and based on the spectral integration values. High resolution mass spectra were obtained on a Thermo Exactive Orbitrap LC/MS. HPLC was performed on a Dionex HPLC System (Dionex Corporation) equipped with a GP50 gradient pump and an inline diode array UV-Vis detector. A reversed-phase C18 (Phenomenax, 5 μm, 10×250 mm or Dionex, 5 μm, 4.6×250 mm) column was used with a MeCN (B)/H2O (A) gradient mobile phase containing 0.1% trifluoroacetic acid at a flow of 1 or 3 mL/min for the analysis. Fluorescence Spectra and kinetic experiments were collected by a SpectraMax iD3 multimode microplate reader (Molecular Device, San Jose, CA)."}}}
{"smiles": "O=C(CCCCCNC(=O)c1ccc(NC(=O)c2ccccc2)cc1)NC1C(=O)N2C(C(=O)O)=C(COc3ccc4nc(C5=NC(C(=O)O)CS5)sc4c3)C[S+]([O-])C12", "note": "(stereo not shown) [Am-Bluco, 7-(6-(4-benzamidobenzamido)hexanamido)-3-(((2-(4-carboxy-4,5-dihydrothiazol-2-yl)benzo[d]thiazol-6-yl)oxy)methyl)-8-oxo-5-thia-1-azabicyclo[4.2.0]oct-2-ene-2-carboxylic acid 5-oxide]", "values": [{"measurement": "oxidation of probe incubated with firefly luciferase (mass spectrometry)", "setting": "firefly luciferase", "result": "oxidized"}, {"measurement": "bioluminescence emission on additional batches of firefly luciferase", "setting": "firefly luciferase", "result": "produced bioluminescence emission upon each addition of firefly luciferase"}]}
{"smiles": "O=C(Cc1ccccc1)NC1C(=O)N2C(C(=O)O)=C(COc3ccc4nc(C5=N[C@H](C(=O)O)CS5)sc4c3)C[S+]([O-])C12", "note": "(stereo partly shown) [Bluco, reference compound]", "values": [{"measurement": "oxidation of probe incubated with firefly luciferase (mass spectrometry)", "setting": "firefly luciferase", "result": "oxidized"}, {"measurement": "bioluminescence emission on additional batches of firefly luciferase", "setting": "firefly luciferase", "result": "still bioluminescence emission"}, {"measurement": "fold increase in bioluminescence emission upon TEM-1 treatment (turn-on ratio, signal with TEM-1 over signal without TEM-1)", "setting": "TEM-1 [1]", "result": 41.3, "unit": "fold"}, {"measurement": "bioluminescence triggered by β-lactamases TEM-1, KPC-3, BlaC, AmpC, OXA-48", "setting": "[2]; each enzyme 2 hours at room temperature, IVIS imaging", "result": "significant bioluminescence"}]}
{"smiles": "O=C(O)[C@H]1CSC(c2nc3ccc(O)cc3s2)=N1", "note": "[D-luciferin]", "values": [{"measurement": "difference in bioluminescent signal of D-luciferin with or without IMP-1", "setting": "IMP-1", "result": "No significant differences"}, {"measurement": "difference in bioluminescent signal of D-luciferin with or without TEM-1", "setting": "TEM-1 [3]", "result": "No significant differences"}]}
{"smiles": "O=C(Cc1ccccc1)NC1C(=O)N2C(C(=O)O)=C(COc3ccc(COc4ccc5nc(C6=N[C@@H](C(=O)O)CS6)sc5c4)cc3)C3(CC3)SC12", "note": "(stereo partly drawn) [O-Bluco, 4-((4-(((2-((S)-4-carboxy-4,5-dihydrothiazol-2-yl)benzo[d]thiazol-6-yl)oxy)methyl)phenoxy)methyl)-7-oxo-8-(2-phenylacetamido)-2-thia-6-azaspiro[bicyclo[4.2.0]octane-3,1′-cyclopropan]-4-ene-5-carboxylic acid]", "values": [{"measurement": "fold increase in fluorescence emission in the presence of TEM-1", "setting": "TEM-1 [4]; 1 μM probe, TEM-1 100 nM, 40 min, PBS pH 7.4, r.t., excitation 330 nm, emission 530 nm", "result": 32.7, "unit": "fold"}, {"measurement": "course of fluorescence signal with TEM-1 bla", "setting": "TEM-1 [4]; TEM-1 bla 100 nM, monitored over 40 minutes", "result": "gradual increase of signal"}, {"measurement": "fold increase in bioluminescence emission upon TEM-1 treatment (turn-on ratio, signal with TEM-1 over signal without TEM-1)", "setting": "TEM-1 [1]", "result": 100.5, "unit": "fold"}, {"measurement": "sensitivity improvement over previously reported fluorescent cephalosporin probes", "setting": "[2]", "result": 1000, "unit": "fold"}, {"measurement": "detection limits for the panel of enzymes", "setting": "[2]; KPC-3, BlaC, TEM-1, IMP-1, AmpC, OXA-48, 2 hr at r.t.", "result": "within the femtomole range"}]}
